Data from paper PMC10999543, “Identification of kinase modulators as host-directed therapeutics against intracellular methicillin-resistant Staphylococcus aureus” (Frontiers in Cellular and Infection Microbiology, 2024).
Where two headings read alike, the source gives them in different places.

How the values were obtained:
intracellular MRSA = type: cell-based, Staphylococcus aureus; settings: for z-scoreMRSA+ mean: mean of 3 replicates; for z-scoreMRSA+ rep 1 / %GFP+ rep 1: replicate 1; for z-scoreMRSA+ rep 2 / %GFP+ rep 2: replicate 2; for z-scoreMRSA+ rep 3 / %GFP+ rep 3: replicate 3
Procedure, shortened: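 HeLa, MRSA-GFP at MOI ~6.8, 1 h infection; gentamicin 30 µg/ml for 15 min; inhibitor plus gentamicin 5 µg/ml overnight, 37°C/5% CO2; triplicate plates; FACS %GFP+ and cell count; hit = z ≤ -2 MRSA+, z ≥ -3 count.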

HeLa cells = test: Compound screen by flow cytometry: HeLa cell count as surrogate readout of cell viability (z-scoreHeLa); type: cell-based, human
Procedure, shortened: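 HeLa cells were infected with GFP-MRSA (mean MOI 6.8 ± 4.6) for 1 h, and extracellular bacteria were killed with 30 µg/ml gentamicin. Cells were then incubated overnight with kinase inhibitors in 5 µg/ml gentamicin, in triplicate against DMSO controls. Flow-cytometric cell count served as a viability surrogate, expressed as a plate z-score.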

[1] = PKIS compound screen, Yes/No call
[2] = PKIS compound screen, Yes/No call (effect without cell death)
[3] = PKIS compounds raw data, MRSA-infected HeLa cells
[4] = PKIS compound screen, mean of 3 replicates
[5] = PKIS compound screen, replicate 1
[6] = PKIS compound screen, replicate 2
[7] = PKIS compound screen, replicate 3
[8] = PKIS compounds raw data, replicate 1, HeLa cell count
[9] = PKIS compounds raw data, replicate 2, HeLa cell count
[10] = PKIS compounds raw data, replicate 3, HeLa cell count
[11] = PKIS compound screen raw data, MRSA-infected HeLa cells
[12] = Yes/No: effect without cell death
[13] = compound screen, MRSA-infected HeLa cells
[14] = PKIS compound screen raw data, HeLa cell count, replicate 1
[15] = PKIS compound screen raw data, HeLa cell count, replicate 2
[16] = PKIS compound screen raw data, HeLa cell count, replicate 3
[17] = compound screen, HeLa cell count, mean of 3 replicates
[18] = compound screen, HeLa cell count, replicate 1
[19] = compound screen, HeLa cell count, replicate 2
[20] = compound screen, HeLa cell count, replicate 3
[21] = PKIS compound screen, MRSA-infected HeLa cells
[22] = PKIS compound screen, Yes/No call on z-scoreMRSA+
[23] = PKIS compound screen, HeLa cell count, mean of 3 replicates
[24] = PKIS compound screen, HeLa cell count, replicate 1
[25] = PKIS compound screen, HeLa cell count, replicate 2
[26] = PKIS compound screen, HeLa cell count, replicate 3
[27] = PKIS compound screen, Yes/No call on z-scoreHeLa

| Structure (SMILES) | hit (intracellular MRSA; [2]) | %GFP+ rep 1 (intracellular MRSA; [11]) [%] | %GFP+ rep 2 (intracellular MRSA; [11]) [%] | %GFP+ rep 3 (intracellular MRSA; [11]) [%] | effect (intracellular MRSA; Yes/No call from z-scoreMRSA+) | hit (intracellular MRSA; [12]) | z-scoreMRSA+ mean (intracellular MRSA; [13]) | z-scoreMRSA+ rep 1 (intracellular MRSA; [13]) | z-scoreMRSA+ rep 2 (intracellular MRSA; [13]) | z-scoreMRSA+ rep 3 (intracellular MRSA; [13]) | cell count rep 1 (HeLa cells; [14]) | cell count rep 2 (HeLa cells; [15]) | cell count rep 3 (HeLa cells; [16]) | cell death (HeLa cells; Yes/No call from z-scoreHeLa) | z-scoreHeLa mean (HeLa cells; [17]) | z-scoreHeLa rep 1 (HeLa cells; [18]) | z-scoreHeLa rep 2 (HeLa cells; [19]) | z-scoreHeLa rep 3 (HeLa cells; [20]) | z-scoreMRSA+ mean (intracellular MRSA; [21]) | z-scoreMRSA+ rep 1 (intracellular MRSA; [21]) | other results |
| --- | --- | --- | --- | --- | --- | --- | --- | --- | --- | --- | --- | --- | --- | --- | --- | --- | --- | --- | --- | --- | --- |
| c1ccc(Cn2ncc3cc(Nc4ncnc5ccccc45)ccc32)cc1 [GW273749A] | No | – | – | – | – | – | – | – | – | – | – | – | – | – | – | – | – | – | – | – | effect (intracellular MRSA; [1]): No; z-scoreMRSA+ mean (intracellular MRSA; PKIS compound screen): 0.17; z-scoreMRSA+ rep 1 (intracellular MRSA; PKIS compound screen): -0.11; z-scoreMRSA+ rep 2 (intracellular MRSA; PKIS compound screen): 0.34; z-scoreMRSA+ rep 3 (intracellular MRSA; PKIS compound screen): 0.28; %GFP+ rep 1 (intracellular MRSA; [3]): 26.5%; %GFP+ rep 2 (intracellular MRSA; [3]): 27.8%; %GFP+ rep 3 (intracellular MRSA; [3]): 28.8%; cell death (HeLa cells; [1]): No; z-scoreHeLa mean (HeLa cells; [4]): 1.74; z-scoreHeLa rep 1 (HeLa cells; [5]): 1.98; z-scoreHeLa rep 2 (HeLa cells; [6]): 1.42; z-scoreHeLa rep 3 (HeLa cells; [7]): 1.82; cell count rep 1 (HeLa cells; [8]): 9337; cell count rep 2 (HeLa cells; [9]): 8148; cell count rep 3 (HeLa cells; [10]): 8467 |
| COc1cccc(CC(=O)N2CCc3cc(-c4cn(C)c5ncnc(N)c45)ccc32)c1 [GSK2608899A] | – | 26.6 | 25.5 | 23.7 | No | No | 0.49 | 0.31 | 0.70 | 0.45 | 3096 | 2695 | 3225 | No | -1.14 | -0.91 | -1.24 | -1.27 | – | – | – |
| Nc1ncc(-c2ccncc2)c2scc(-c3ccc4c(c3)CCN4C(=O)Cc3ccccc3)c12 [GSK2592465A] | – | 23.8 | 25.0 | 22.8 | No | No | 0.14 | -0.34 | 0.58 | 0.18 | 4912 | 4633 | 5392 | No | 0.25 | 0.40 | 0.26 | 0.10 | – | – | – |
| c1ccc(-c2n[nH]cc2-c2ccnc(-c3ccc(CNC4CCOCC4)cc3)c2)nc1 [GW709213X] | – | 20.2 | 23.4 | 24.6 | No | No | 0.80 | 0.38 | 1.09 | 0.92 | 27129 | 33773 | 22823 | No | 0.57 | -0.52 | 1.46 | 0.76 | – | – | – |
| COc1cc(Nc2ncc3c(C)nc(-c4cc5ccccc5[nH]4)n3n2)cc(OC)c1OC [GW869516X] | No | – | – | – | – | – | – | – | – | – | – | – | – | – | – | – | – | – | – | – | effect (intracellular MRSA; [1]): No; z-scoreMRSA+ mean (intracellular MRSA; PKIS compound screen): -0.71; z-scoreMRSA+ rep 1 (intracellular MRSA; PKIS compound screen): -0.87; z-scoreMRSA+ rep 2 (intracellular MRSA; PKIS compound screen): -0.43; z-scoreMRSA+ rep 3 (intracellular MRSA; PKIS compound screen): -0.83; %GFP+ rep 1 (intracellular MRSA; [3]): 22.6%; %GFP+ rep 2 (intracellular MRSA; [3]): 23.8%; %GFP+ rep 3 (intracellular MRSA; [3]): 22.8%; cell death (HeLa cells; [1]): No; z-scoreHeLa mean (HeLa cells; [4]): 1.43; z-scoreHeLa rep 1 (HeLa cells; [5]): 1.29; z-scoreHeLa rep 2 (HeLa cells; [6]): 1.41; z-scoreHeLa rep 3 (HeLa cells; [7]): 1.60; cell count rep 1 (HeLa cells; [8]): 8188; cell count rep 2 (HeLa cells; [9]): 8134; cell count rep 3 (HeLa cells; [10]): 8115 |
| Cn1cc(-c2ccc3c(c2)CCN3C(=O)Cc2cc(F)cc(C(F)(F)F)c2)c2c(N)ncnc21 [GSK2635225A] | – | 22.6 | 22.9 | 20.1 | No | No | -0.39 | -0.62 | 0.07 | -0.63 | 4783 | 4290 | 4665 | No | -0.02 | 0.31 | -0.0088 | -0.36 | – | – | – |
| CCOc1ccc2c(-c3ccnc(Nc4cccc(C(F)(F)F)c4)n3)cnn2n1 [GW811761X] | No | 16.8 | 16.8 | 18.1 | – | – | – | – | – | – | 25545 | 40447 | 52915 | – | – | – | – | – | -0.46 | -0.34 | z-scoreMRSA+ rep 2 (intracellular MRSA; [21]): -0.52; z-scoreMRSA+ rep 3 (intracellular MRSA; [21]): -0.51; effect (intracellular MRSA; [22]): No; z-scoreHeLa mean (HeLa cells; [23]): 1.28; z-scoreHeLa rep 1 (HeLa cells; [24]): 0.82; z-scoreHeLa rep 2 (HeLa cells; [25]): 1.06; z-scoreHeLa rep 3 (HeLa cells; [26]): 1.97; cell death (HeLa cells; [27]): No |
| COc1ccc(COc2ccc(Cc3cnc(N)nc3N)cc2OC)cc1 [GW632580X] | No | 19.0 | 19.0 | 21.7 | – | – | – | – | – | – | 16746 | 34970 | 43497 | – | – | – | – | – | 0.36 | 0.36 | z-scoreMRSA+ rep 2 (intracellular MRSA; [21]): 0.14; z-scoreMRSA+ rep 3 (intracellular MRSA; [21]): 0.58; effect (intracellular MRSA; [22]): No; z-scoreHeLa mean (HeLa cells; [23]): -0.0017; z-scoreHeLa rep 1 (HeLa cells; [24]): -0.51; z-scoreHeLa rep 2 (HeLa cells; [25]): 0.0341; z-scoreHeLa rep 3 (HeLa cells; [26]): 0.47; cell death (HeLa cells; [27]): No |
| Cc1ccc(NC(=O)c2ccc(Cl)cc2)cc1-c1ccc(C(=O)Nc2ccncc2)cc1 [GSK1398467A] | No | 17.7 | 18.1 | 16.2 | – | – | – | – | – | – | 10600 | 12964 | 20345 | – | – | – | – | – | -0.42 | -0.05 | z-scoreMRSA+ rep 2 (intracellular MRSA; [21]): -0.13; z-scoreMRSA+ rep 3 (intracellular MRSA; [21]): -1.09; effect (intracellular MRSA; [22]): No; z-scoreHeLa mean (HeLa cells; [23]): -2.91; z-scoreHeLa rep 1 (HeLa cells; [24]): -1.44; z-scoreHeLa rep 2 (HeLa cells; [25]): -4.07; z-scoreHeLa rep 3 (HeLa cells; [26]): -3.21; cell death (HeLa cells; [27]): No |
| Cc1ccc(O)cc1Nc1ccnc2ccc(S(C)(=O)=O)cc12 [GW559768X] | Yes | 8.1 | 10.1 | 9.8 | – | – | – | – | – | – | – | – | – | – | – | – | – | – | -2.90 | -3.11 | z-scoreMRSA+ rep 2 (intracellular MRSA; [21]): -2.53; z-scoreMRSA+ rep 3 (intracellular MRSA; [21]): -3.05; effect (intracellular MRSA; [22]): Yes; cell death (HeLa cells): No; cell count rep 1 (HeLa cells; human): 30393; cell count rep 2 (HeLa cells; human): 35205; cell count rep 3 (HeLa cells; human): 44674; z-scoreHeLa mean (HeLa cells; human): 0.77; z-scoreHeLa rep 1 (HeLa cells; human): 1.56; z-scoreHeLa rep 2 (HeLa cells; human): 0.08; z-scoreHeLa rep 3 (HeLa cells; human): 0.66 |
| CCN(CC)CCOc1ccc(Nc2ncc3cc(-c4c(Cl)cccc4Cl)c(=O)n(C)c3n2)cc1 [SB-601273] | – | 32.3 | 28.1 | 25.0 | No | No | 1.27 | 1.64 | 1.33 | 0.84 | – | – | – | – | – | – | – | – | – | – | cell death (HeLa cells): No; cell count rep 1 (HeLa cells; human): 895; cell count rep 2 (HeLa cells; human): 949; cell count rep 3 (HeLa cells; human): 1208; z-scoreHeLa mean (HeLa cells; human): -2.54; z-scoreHeLa rep 1 (HeLa cells; human): -2.49; z-scoreHeLa rep 2 (HeLa cells; human): -2.58; z-scoreHeLa rep 3 (HeLa cells; human): -2.55 |
| Fc1cc(Cl)ccc1Nc1ccnc2cc(-c3ccc(CN4CCCCC4)o3)ccc12 [GW560116X] | – | 26.5 | 26.3 | 25.6 | No | No | 0.73 | 0.29 | 0.89 | 1.02 | 2203 | 2204 | 1264 | No | -1.89 | -1.55 | -1.61 | -2.51 | – | – | – |
| c1ccc(-c2n[nH]cc2Nc2ccnc3ccccc23)nc1 [GW694077X] | No | 15.2 | 17.2 | 15.3 | – | – | – | – | – | – | 27159 | 28509 | 18866 | – | – | – | – | – | -1.06 | -0.96 | z-scoreMRSA+ rep 2 (intracellular MRSA; [21]): -0.60; z-scoreMRSA+ rep 3 (intracellular MRSA; [21]): -1.62; effect (intracellular MRSA; [22]): No; z-scoreHeLa mean (HeLa cells; [23]): 0.01; z-scoreHeLa rep 1 (HeLa cells; [24]): -0.51; z-scoreHeLa rep 2 (HeLa cells; [25]): 0.55; z-scoreHeLa rep 3 (HeLa cells; [26]): -0.0113; cell death (HeLa cells; [27]): No |
